According to PubChem BioAssay (NCI):
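Grown in 96-well plates, cells were treated for 48 hours with each compound at five concentrations. Insufficient inhibition: endpoint recorded as highest concentration tested. Here, GI50 denotes the concentration required for 50% inhibition of growth. At the TGI there is no net growth.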

Legend:
Test in all cases: NCI tumour cell line growth inhibition, 48 h
UACC-62 melanoma = system: UACC-62 melanoma
SF-295 CNS = system: SF-295 CNS
SNB-19 CNS = system: SNB-19 CNS
786-0 renal = system: 786-0 renal
SF-539 CNS = system: SF-539 CNS
RPMI-8226 leukemia = system: RPMI-8226 leukemia
OVCAR-5 ovarian = system: OVCAR-5 ovarian
HL-60(TB) leukemia = system: HL-60(TB) leukemia
PC-3 prostate = system: PC-3 prostate
MDA-MB-435 = system: MDA-MB-435

SMILES | TGI (UACC-62 melanoma) [µM] | TGI (SF-295 CNS) [µM] | TGI (SNB-19 CNS) [µM] | TGI (786-0 renal) [µM] | TGI (SF-539 CNS) [µM] | TGI (RPMI-8226 leukemia) [µM] | TGI (OVCAR-5 ovarian) [µM] | TGI (HL-60(TB) leukemia) [µM] | GI50 (SF-295 CNS) [µM] | GI50 (PC-3 prostate) [µM] | TGI (PC-3 prostate) [µM] | GI50 (SNB-19 CNS) [µM] | GI50 (MDA-MB-435) [µM] | TGI (MDA-MB-435) [µM] | GI50 (786-0 renal) [µM] | GI50 (RPMI-8226 leukemia) [µM] | GI50 (UACC-62 melanoma) [µM] | GI50 (OVCAR-5 ovarian) [µM] | GI50 (HL-60(TB) leukemia) [µM] | GI50 (SF-539 CNS) [µM]
COC(=O)/C(=N\Nc1nc(=S)[nH]n1N)C(C#N)c1ccc(Cl)cc1 (stereo not drawn) | > 100 | > 100 | > 100 | > 100 | > 100 | > 100 | > 100 | – | – | – | – | – | – | – | – | – | – | – | – | –
CCCCCC1CC=CC(NC(=O)OCc2ccccc2)C1/C=C/CCCC1OCCO1 (stereo not drawn) | > 100 | > 100 | > 100 | > 100 | > 100 | > 100 | > 100 | 33.4 | – | – | – | – | – | – | – | – | – | – | – | –
O=C1C(c2ccccc2)=[N+]([O-])c2cc([N+](=O)[O-])ccc21 | 26.9 | > 100 | > 100 | 63.3 | 57.3 | 74 | > 100 | 30.1 | – | – | – | – | – | – | – | – | – | – | – | –
CCOC(=O)Nc1cc2c(c(N)n1)N=C(c1ccccc1)CN2 | – | 13.5 | > 59.5 | 25.9 | – | – | 27.7 | – | < 0.0001 | < 0.0001 | < 0.0001 | < 0.0001 | < 0.0001 | < 0.0001 | < 0.0001 | < 0.0001 | – | – | – | –
Cc1cc(=O)n2c(cc3cccccc32)n1 | > 100 | > 100 | > 100 | > 100 | > 100 | > 100 | > 100 | > 100 | – | – | – | – | – | – | – | – | – | – | – | –
NS(=O)(=O)c1ccc(-n2nc(-c3ccccc3)cc2-c2cc(O)ccc2O)cc1 | > 100 | > 100 | > 100 | > 100 | – | – | 92.6 | – | > 100 | 77.6 | > 100 | > 100 | 92.1 | > 100 | 90.8 | – | 44.9 | 25.3 | – | –
Nc1nc(N)c(CCCCc2ccccc2)c(/C=C/c2ccc([N+](=O)[O-])cc2)n1 | 7.46 | 14.5 | 64.7 | 7.34 | 5.62 | 19 | 15.8 | 3.14 | – | – | – | – | – | – | – | – | – | – | – | –
CC(O)(c1ccc(OCCC[N+](C)(C)C)cc1)C(C)(O)c1ccc(OCCC[N+](C)(C)C)cc1 (stereo not drawn) | > 100 | > 100 | > 100 | > 100 | > 100 | – | > 100 | > 100 | – | – | – | – | – | – | – | – | – | – | – | –
COC(=O)c1cc2c([nH]c3ccccc32)c(-c2nc3ccccc3cc2CO)n1 | > 100 | > 100 | > 100 | > 100 | > 100 | – | > 100 | 50.2 | > 100 | > 100 | > 100 | > 100 | > 100 | > 100 | 6.2 | – | > 100 | > 100 | 24.9 | 47
CCCCNP1(NCCCC)=NP(NCCCC)(NCCCC)=NP(NCCCC)(NCCCC)=NP(NCCCC)(NCCCC)=N1 | 5.91 | 5.6 | 27.9 | 5.26 | 8.55 | – | 9.81 | 0.888 | 0.905 | 0.24 | 12.4 | 1.12 | 0.931 | 6.51 | 1.34 | – | 0.567 | 1.61 | 0.098 | 2.89
C[C@H]1[C@H](C)CC[C@]2(C(=O)O)CCC3(COC(=O)/C=C/c4ccc(O)cc4)C(=CCC4[C@@]5(C)CC[C@H](O)C(C)(C)C5CC[C@]43C)[C@H]12 (stereo partly drawn) | 23 | 13.2 | 22.5 | 16 | 16.5 | 49.8 | 28.6 | 53.1 | – | – | – | – | – | – | – | – | – | – | – | –
C=C(C)C1CC=C(C)C(O)([C@@]2(O)C[C@H](C(=C)C)CC=C2C)C1 (stereo partly drawn) | 55.9 | 48.5 | > 100 | 31.3 | 42.1 | 48.7 | 63.5 | 47.2 | – | – | – | – | – | – | – | – | – | – | – | –
Cc1nccc2c3ccc(OCc4cn(-c5ccc(Br)cc5)nn4)cc3n(CCCc3ccccc3)c12 | 7.08 | > 100 | > 100 | 3.13 | 3.4 | – | 6.72 | > 100 | > 100 | 3.42 | > 100 | 3.35 | – | – | 1.49 | – | 2.46 | 2.15 | 6.53 | 1.72
CCC1=CCC(P(=O)(c2ccccc2)c2ccccc2)CC1C (stereo not drawn) | > 100 | > 100 | > 100 | > 100 | > 100 | 52.9 | > 100 | 53.6 | – | – | – | – | – | – | – | – | – | – | – | –
CC[C@@]1(O)C(=O)OCc2c1cc1n(c2=O)Cc2cc3cccc(N)c3nc2-1 | 31.7 | 23.5 | 50.3 | 8.72 | 17 | > 100 | > 100 | > 100 | 4.04 | – | – | 5.77 | – | – | 2.38 | > 100 | 4.74 | 25.8 | 3.52 | 3.7
CC1=C(C(=O)Nc2ccccc2C)C(c2ccccc2O)C(C(=O)Nc2ccccc2C)=C(C)N1 | 35.7 | 40.3 | > 100 | 31.2 | 36.5 | 66.8 | 82.2 | 61.2 | – | – | – | – | – | – | – | – | – | – | – | –
C/C(CC(=O)Nc1cccc([N+](=O)[O-])c1)=N/NC(N)=S | > 100 | > 100 | – | > 100 | > 100 | > 100 | > 100 | > 100 | – | – | – | – | – | – | – | – | – | – | – | –
COC(=O)/C=C(C)/C=C/c1c(C)c(C(C)=O)c(C)n1C | > 100 | > 100 | > 100 | > 100 | > 100 | > 100 | > 100 | > 100 | – | – | – | – | – | – | – | – | – | – | – | –
Cc1cc(C(=O)CC(Cl)=C(Cl)Cl)c(Cl)cc1Cl | 39.3 | 54.8 | > 100 | 42.1 | 29.9 | 40.8 | 79.8 | – | 19.9 | – | – | 35.4 | 17.1 | 43.1 | 22.1 | 16.6 | 18.4 | 29.8 | – | 13.1
